For 24 molecules, EC50 results are on record in patent publication US20250042916A1 (ACONCAGUA BIO, INC., priority 2023, published 2025).

Some results are limits rather than exact numbers.

human calcitonin receptor (CTR) and RAMP3 (AMY3) in COS-7 cells, sequence (P30988 25-474): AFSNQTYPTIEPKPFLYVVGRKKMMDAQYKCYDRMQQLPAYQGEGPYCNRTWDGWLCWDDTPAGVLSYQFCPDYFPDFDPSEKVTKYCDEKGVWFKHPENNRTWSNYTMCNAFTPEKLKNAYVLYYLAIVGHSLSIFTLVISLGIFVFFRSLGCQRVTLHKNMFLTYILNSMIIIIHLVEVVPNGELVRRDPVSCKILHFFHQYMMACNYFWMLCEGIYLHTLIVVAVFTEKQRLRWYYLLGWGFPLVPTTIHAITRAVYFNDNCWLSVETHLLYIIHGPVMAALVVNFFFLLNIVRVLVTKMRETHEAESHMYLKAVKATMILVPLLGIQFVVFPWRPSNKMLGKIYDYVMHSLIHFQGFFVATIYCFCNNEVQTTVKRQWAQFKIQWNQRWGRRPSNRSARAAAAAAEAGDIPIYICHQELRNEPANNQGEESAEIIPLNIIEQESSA
human calcitonin receptor (CTR) and RAMP3 (AMY3) in COS-7 cells, sequence (O60896 24-148): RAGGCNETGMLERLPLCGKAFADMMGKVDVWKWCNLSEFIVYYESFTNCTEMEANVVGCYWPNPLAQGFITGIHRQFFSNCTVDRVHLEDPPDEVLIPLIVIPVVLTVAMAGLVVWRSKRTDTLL

This assay has as its target human calcitonin receptor (CTR) and RAMP3 (AMY3) in COS-7 cells (Homo sapiens, UniProt O60896+P30988). Put plainly: Amylin Receptor cAMP Assay I. In kind it is cell-based. The following applies: values marked *: Amylin Receptor cAMP Assay I; COS-7/AMY3 cells; read-out: Amylin Receptor cAMP Stimulation Activity: EC50. An excerpt:
Amylin Receptor cAMP Assay I
AMYRs are heterodimers of the class B calcitonin (CT) G-protein-coupled receptor (CTR) and receptor activity-modifying proteins (RAMPs). All three RAMPs can interact with the CTR and form AMY1, AMY2, AMY3 with RAMP1, RAMP2 and RAMP3, respectively. Like other class B1 GPCRs, the CT receptor family is canonically coupled to Gs-mediated cAMP production, and measurement of cAMP accumulation has been the primary assay used to determine peptide selectivity and potency.
To optimize functional activity directed toward Gas coupling, COS-7 cells were stably transfected with human calcitonin receptor (CTR) and RAMP3, simultaneously. 100× concentration of compound working solutions were prepared (Agilent Technologies Bravo) with 4-fold serial dilution in 384-well Echo LDV plate (Labcyte, Cat #LP-0200). 100 nL/well 100× concentration of compound working solutions were moved to 384-well white low volume plate (Greiner, Cat #784075) using Labcyte ECHO550. 1×10^5 cells/mL COS-7/CTR or COS-7/AMY3 (HD Biosciences) cell suspensions prepared with assay buffer [DPBS containing 0.5 mM IBMX (Sigma, Cat #15879) and 0.1% BSA (GENVIEW, Cat #FA016-100 g)], 10 μL cell suspensions were added to each well of previous generated assay plate which already contains 100 nL compound at 100× concentration using ThermoFisher Multidrop Combi (1000 cells/well). Seal the plate and incubate at 37° C. with 5% CO2 for 30 min.
After incubation, the cAMP assay signal was generated using cAMP Hi-range Kit (Cisbio). 5 μL cAMP-d2 working solution was added to each well, followed by 5 μL Anti-cAMP antibody-cryptate working solution which was added to each well using ThermoFisher Multidrop Combi. The samples were then incubated at room temperature for 1 hour protected from light. the fluorescence was read at 665 and 615 nm with Reader PerkinElmer EnVision.
The term EC50 denotes the concentration giving half of the maximal effect. In the case of `CC(C)Cc1nc(CCc2ccc(F)cc2)c(-c2nnc(C(F)(F)F)o2)c(-c2ccc(C(=O)NCc3ccc(F)c(F)c3)s2)c1C(N)=O` [Compound 148, N-(3,4-difluorophenyl)methyl-5-{5-carbamoyl-2-[2-(p-fluorophenyl)ethyl]-6-isobutyl-3-[5-(trifluoromethyl)-1,3,4-oxadiazol-2-yl]-4-pyridyl}-2-thenamide], the half-maximal effective concentration (EC50) came to 208 nM.

For the molecule `Cc1nnc(-c2c(CCc3ccc(F)cc3)nc(CC(C)C)c(C(N)=O)c2-c2ccc3c(ccn3CC3CCc4ccccc43)c2)o1` (stereo not drawn) [Compound 177, 4-(1-((2,3-dihydro-1H-inden-1-yl)methyl)-1H-indol-5-yl)-6-(4-fluorophenethyl)-2-isobutyl-5-(5-methyl-1,3,4-oxadiazol-2-yl)nicotinamide], the EC50 worked out at 394 nM.

Take `Cc1nnc(-c2c(CCc3ccc(F)cc3)nc(CC(C)C)c(C(N)=O)c2-c2cc3c(N)cccc3s2)o1` [Compound 139, 4-(4-aminobenzo[b]thiophen-2-yl)-6-(4-fluorophenethyl)-2-isobutyl-5-(5-methyl-1,3,4-oxadiazol-2-yl)nicotinamide]: the half-maximal effective concentration (EC50) turned out to be 9930 nM.

With `CC(C)Cc1nc(CCc2ccc(F)cc2)c(-c2nc(C(C)C)no2)c(-c2ccc(C(=O)NCc3ccc(F)c(F)c3)s2)c1C(N)=O` [Compound 103, N-(3,4-difluorophenyl)methyl-5-{5-carbamoyl-2-[2-(p-fluorophenyl)ethyl]-6-isobutyl-3-(3-isopropyl-1,2,4-oxadiazol-5-yl)-4-pyridyl}-2-thenamide], the EC50 is 314 nM.

As for `Cc1nnc(-c2c(CCc3ccc(F)cc3)nc(CC(C)C)c(C(N)=O)c2-c2ccc(C(=O)NCc3ccccc3)s2)o1` [Compound 115, N-benzyl-5-{5-carbamoyl-2-[2-(p-fluorophenyl)ethyl]-6-isobutyl-3-(5-methyl-1,3,4-oxadiazol-2-yl)-4-pyridyl}-2-thenamide], the concentration for a half-maximal effect (EC50) was found to be 85 nM.

On to `CO[C@@H]1CCCN(C(=O)c2ccc(-c3c(C(N)=O)c(CC(C)C)nc(CCc4ccc(F)cc4)c3-c3nnc(C)o3)s2)C1` [Compound 165], for which the 50% effective concentration (EC50) is above 1000 nM.

For the molecule `Cc1nnc(-c2c(CCc3ccc(F)cc3)nc(CC(C)C)c(C(N)=O)c2-c2cc3cccc(Br)c3s2)o1` [Compound 129, 4-(7-bromo-1-benzothiophen-2-yl)-6-[2-(p-fluorophenyl)ethyl]-2-isobutyl-5-(5-methyl-1,3,4-oxadiazol-2-yl)nicotinamide], the EC50 was 940 nM.

`Cc1nnc(-c2c(CCC(F)F)nc(CC(C)C)c(C(N)=O)c2-c2ccc(C(=O)NCc3ccc(F)c(F)c3)s2)o1` [Compound 189, 4-(5-((3,4-difluorobenzyl)carbamoyl)thiophen-2-yl)-6-(3,3-difluoropropyl)-2-isobutyl-5-(5-methyl-1,3,4-oxadiazol-2-yl)nicotinamide]: the EC50 is above 1000 nM.

Take `Cc1nnc(-c2c(CCc3ccc(F)cc3)nc(CC(C)C)c(C(N)=O)c2-c2ccc(C(=O)N[C@H]3CCc4ncccc43)s2)o1` [Compound 124, (S)-4-(5-((6,7-dihydro-5H-cyclopenta[b]pyridin-5-yl)carbamoyl)thiophen-2-yl)-6-(4-fluorophenethyl)-2-isobutyl-5-(5-methyl-1,3,4-oxadiazol-2-yl)nicotinamide]: the EC50 was 35.8 nM.

Regarding `Cc1nnc(-c2c(CCC3CCCCC3)nc(CC(C)C)c(C(N)=O)c2-c2ccc(C(=O)NCc3ccc(F)c(F)c3)s2)o1` [Compound 109, 6-(2-cyclohexylethyl)-4-(5-((3,4-difluorobenzyl)carbamoyl)thiophen-2-yl)-2-isobutyl-5-(5-methyl-1,3,4-oxadiazol-2-yl)nicotinamide], the EC50 was found to be 20 nM.

For `Cc1nnc(-c2c(CCc3ccc(F)cc3)nc(CC(C)C)c(C(N)=O)c2CCOC(=O)NCc2ccc(F)c(F)c2)o1` [Compound 145], the EC50 amounted to 6290 nM.

As to `Cc1cc(CNc2nccc3cc(-c4c(C(N)=O)c(CC(C)C)nc(CCc5ccc(F)cc5)c4-c4nnc(C)o4)sc23)ccn1` [Compound 156], the 50% effective concentration (EC50) turned out to be 1200 nM.

`CO[C@H]1CCCN(C(=O)c2ccc(-c3c(C(N)=O)c(CC(C)C)nc(CCc4ccc(F)cc4)c3-c3nnc(C)o3)s2)C1` [Compound 166]: the half-maximal effective concentration (EC50) was above 1000 nM.

As to `Cc1nnc(-c2c(COc3ccc(F)cc3)nc(CC(C)C)c(C(N)=O)c2-c2cc3ccnc(N[C@@H]4CCc5ncccc54)c3s2)o1` [Compound 173, (R)-4-(7-((6,7-dihydro-5H-cyclopenta[b]pyridin-5-yl)amino)thieno[2,3-c]pyridin-2-yl)-6-((4-fluorophenoxy)methyl)-2-isobutyl-5-(5-methyl-1,3,4-oxadiazol-2-yl)nicotinamide], the EC50 was found to be 408 nM.

On to `COc1cccc2c1CC[C@H]2Nc1nccc2cc(-c3c(C(N)=O)c(CC(C)C)nc(CCC4CCOCC4)c3-c3ncc(C)o3)sc12` [Compound 198, (R)-2-isobutyl-4-(7-((4-methoxy-2,3-dihydro-1H-inden-1-yl)amino)thieno[2,3-c]pyridin-2-yl)-5-(5-methyloxazol-2-yl)-6-(2-(tetrahydro-2H-pyran-4-yl)ethyl)nicotinamide], for which the half-maximal effective concentration (EC50) was 229 nM.

With `Cc1nnc(-c2c(CCc3ccc(F)cc3)nc(CC(C)C)c(C(N)=O)c2-c2cc3ccnc(NCc4ccncc4)c3s2)o1` [Compound 202, 6-(4-fluorophenethyl)-2-isobutyl-5-(5-methyl-1,3,4-oxadiazol-2-yl)-4-(7-((pyridin-4-ylmethyl)amino)thieno[2,3-c]pyridin-2-yl)nicotinamide], the EC50 came to 242 nM.

Regarding `COc1cc(CNC(=O)c2ccc(-c3c(C(N)=O)c(CC(C)C)nc(CCc4ccc(F)cc4)c3-c3nnc(C)o3)s2)ccc1F` [Compound 117, N-[(4-fluoro-3-methoxyphenyl)methyl]-5-{5-carbamoyl-2-[2-(p-fluorophenyl)ethyl]-6-isobutyl-3-(5-methyl-1,3,4-oxadiazol-2-yl)-4-pyridyl}-2-thenamide], the EC50 was 40.2 nM.

With `COc1cccc(CNC(=O)c2ccc(-c3c(C(N)=O)c(CC(C)C)nc(CCc4ccc(F)cc4)c3-c3nnc(C)o3)s2)c1` [Compound 113, N-(m-methoxyphenyl)methyl-5-{5-carbamoyl-2-[2-(p-fluorophenyl)ethyl]-6-isobutyl-3-(5-methyl-1,3,4-oxadiazol-2-yl)-4-pyridyl}-2-thenamide], the concentration giving a half-maximal response (EC50) was found to be 6.2 nM.

Consider `Cc1ccc(CCc2nc(CC(C)C)c(C(N)=O)c(-c3ccc(C(=O)N[C@@H]4CCc5ncccc54)s3)c2-c2nnc(C)o2)nc1` [Compound 195, (R)-4-(5-((6,7-dihydro-5H-cyclopenta[b]pyridin-5-yl)carbamoyl)thiophen-2-yl)-2-isobutyl-5-(5-methyl-1,3,4-oxadiazol-2-yl)-6-(2-(5-methylpyridin-2-yl)ethyl)nicotinamide], for which the EC50 is 39900 nM.

`COc1cc(F)cc(CNC(=O)c2ccc(-c3c(C(N)=O)c(CC(C)C)nc(CCc4ccc(F)cc4)c3-c3nnc(C)o3)s2)c1` [Compound 116, N-[(3-fluoro-5-methoxyphenyl)methyl]-5-{5-carbamoyl-2-[2-(p-fluorophenyl)ethyl]-6-isobutyl-3-(5-methyl-1,3,4-oxadiazol-2-yl)-4-pyridyl}-2-thenamide]: the EC50 was found to be 13.9 nM.

As to `COc1ccc(CNC(=O)c2ccc(-c3c(C(N)=O)c(CC(C)C)nc(CCc4ccc(F)cc4)c3-c3nnc(C)o3)s2)cc1` [Compound 114, N-(p-methoxyphenyl)methyl-5-{5-carbamoyl-2-[2-(p-fluorophenyl)ethyl]-6-isobutyl-3-(5-methyl-1,3,4-oxadiazol-2-yl)-4-pyridyl}-2-thenamide], the EC50 came out at 323 nM.

Turning to `Cc1noc(-c2c(CCc3ccc(F)cc3)nc(CC(C)C)c(C(N)=O)c2-c2ccc(-c3cn(Cc4ccc(F)c(F)c4)nn3)s2)n1` [Compound 104, 4-(5-{1-[(3,4-difluorophenyl)methyl]-1H-1,2,3-triazol-4-yl}-2-thienyl)-6-[2-(p-fluorophenyl)ethyl]-2-isobutyl-5-(3-methyl-1,2,4-oxadiazol-5-yl)nicotinamide], the concentration giving a half-maximal response (EC50) came out at 444 nM.

As to `Cc1ccn(CCc2nc(CC(C)C)c(C(N)=O)c(-c3ccc(C(=O)NCc4ccc(F)c(F)c4)s3)c2-c2nnc(C)o2)n1` [Compound 183, 4-(5-((3,4-difluorobenzyl)carbamoyl)thiophen-2-yl)-2-isobutyl-5-(5-methyl-1,3,4-oxadiazol-2-yl)-6-(2-(3-methyl-1H-pyrazol-1-yl)ethyl)nicotinamide], the EC50 was 1910 nM.

In the case of `Cc1nnc(-c2c(CCc3ccc(F)cc3)nc(CC(C)C)c(C(N)=O)c2-c2ccc(CN[C@@H]3CCc4ccccc43)s2)o1` [Compound 140, 4-(5-{[(R)-1-indanylamino]methyl}-2-thienyl)-6-[2-(p-fluorophenyl)ethyl]-2-isobutyl-5-(5-methyl-1,3,4-oxadiazol-2-yl)nicotinamide], the EC50 came out at 177 nM.
